In patent US5719128A, “Factor IIa inhibitors” (Akzo Nobel N.V., priority 1991, dated 1998):
Residues, ends and D or L forms follow the SMILES beside them.

How the values were obtained:
Assay type in all cases: biochemical
human thrombin = human thrombin (Homo sapiens, UniProt P00734); test: Inhibition of human thrombin (aIIa), splitting of chromogenic substrate S 2238; settings: measured after 90 minutes, expressed as the molar concentration which inhibited the end absorbance by 50%
Description: (§1) The inhibition of human thrombin was investigated by continuously monitoring the splitting of the chromogenic substance S 2238 (N-D-Phe-L-pipecolyl-L-Arg-p-nitro-anilide 2 HCl) in the absence and in the presence of 3, 1, 0.3, 0.1 and 0.03 mM of the compound investigated. These measurements were performed with the help of a kinetic microtiter plate reader. From these measurements the end absorbances were calculated after 90 minutes. Based on these total scores, an IC50 of the various compounds investigated is expressed as the molar concentration which inhibited the end absorbance by 50%. IC50 values for aXa-activity were investigated in the same way by using the chromogenic substrate s2222 (N-benzoyl-Ile-Glu-(OCH3)Gly-Arg-pNa).

aXa = aXa (Homo sapiens, UniProt P00742); test: aXa-activity, chromogenic substrate s2222; settings: measured after 90 minutes, expressed as molar concentration
aXa, sequence (P00742 41-179 limits assumed): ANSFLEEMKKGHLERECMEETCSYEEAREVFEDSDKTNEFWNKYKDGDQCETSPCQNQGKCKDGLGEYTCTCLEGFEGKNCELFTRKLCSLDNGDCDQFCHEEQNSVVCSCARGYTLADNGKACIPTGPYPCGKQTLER
aXa, sequence (P00742 235-488 limits assumed): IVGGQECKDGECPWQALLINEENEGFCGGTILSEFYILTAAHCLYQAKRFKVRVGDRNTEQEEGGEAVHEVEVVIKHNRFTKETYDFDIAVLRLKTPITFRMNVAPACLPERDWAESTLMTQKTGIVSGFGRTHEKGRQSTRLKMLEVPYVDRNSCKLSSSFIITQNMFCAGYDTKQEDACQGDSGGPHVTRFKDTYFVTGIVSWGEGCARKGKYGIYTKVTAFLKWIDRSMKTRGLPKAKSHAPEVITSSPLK
Description: as §1

Factor IIa = target: T1, Factor IIa (Homo sapiens, UniProt P00734); test: Ki against Factor IIa; settings: called minimum inhibitory concentrations
T1 construct: Ki [M]-Factor IIa

Row | SMILES | IC50 (human thrombin) | IC50 (aXa) | Ki (Factor IIa)
1 | C[C@H](NC(=O)[C@H](CCCNC(=N)N)NC(=O)[C@@H]1CCCN1C(=O)[C@H](N)Cc1ccccc1)C(=O)N[C@@H](Cc1ccccc1)C(=O)N[C@@H](CCCCN)C(=O)O [H-D-Phe-Pro-Arg-Ala-Phe-Lys-OH] (HELM PEPTIDE1{[dF].P.R.A.F.K}$$$$V2.0) | 110 µM | 3100 µM | –
2 | N=C(N)NCCC[C@H](NC(=O)[C@@H]1CCCN1C(=O)[C@H](N)Cc1ccccc1)C(=O)NCC(=O)O [H-D-Phe-Pro-Arg-Gly-OH, reference compound] (HELM PEPTIDE1{[dF].P.R.G}$$$$V2.0) | 4000 µM | 4800 µM | 70 µM
3 | N=C(N)NCCC[C@H](NC(=O)[C@@H]1CCCN1C(=O)[C@H](N)Cc1ccccc1)C(=O)NCC(=O)N[C@@H](Cc1ccccc1)C(=O)N[C@@H](CCCCN)C(=O)O [H-D-Phe-Pro-Arg-Gly-Phe-Lys-OH] (HELM PEPTIDE1{[dF].P.R.G.F.K}$$$$V2.0) | 250 µM | 1600 µM | 3.4 µM
4 | N=C(N)NCCC[C@H](NC(=O)[C@@H]1CCCN1C(=O)[C@H](N)Cc1ccccc1)C(=O)NCC(=O)N[C@@H](Cc1ccccc1)C(=O)O [H-D-Phe-Pro-Arg-Gly-Phe-OH] (HELM PEPTIDE1{[dF].P.R.G.F}$$$$V2.0) | 410 µM | 1300 µM | 7.6 µM
5 | N=C(N)NCCC[C@H](NC(=O)[C@@H]1CCCN1C(=O)[C@H](N)Cc1ccccc1)C(=O)CCC(=O)O [H-D-Phe-Pro-Arg-psi[COCH2 ]-Gly-OH] | – | – | 26 µM
6 | NCCCC[C@H](NC(=O)[C@H](Cc1ccccc1)NC(=O)CCC(=O)[C@H](CCCN=C(N)N)NC(=O)[C@@H]1CCCN1C(=O)[C@H](N)Cc1ccccc1)C(=O)O [H-D-Phe-Pro-Arg-psi[COCH2 ]-Gly-Phe-Lys-OH] (HELM PEPTIDE1{[dF].P.[N=C(N)NCCC[C@H](N[*:1])C(=O)CCC(=O)[*:2]].F.K}$$$$V2.0) | – | – | 0.028 µM
7 | N=C(N)NCCC[C@H](NC(=O)[C@@H]1CCCN1C(=O)[C@H](N)Cc1ccccc1)C(=O)CCC(=O)N[C@@H](Cc1ccccc1)C(=O)O [H-D-Phe-Pro-Arg-psi[COCH2 ]-Gly-Phe-OH] | 37 µM | 2100 µM | 0.48 µM
